Data published in patent US9992997B2, “Composition comprising bromadiolone, rodenticide bait, and method for controlling target rodent pests” (priority 2014, dated 2018).
Read-outs that look alike come from different tables or passages of the source.

Experiments:
Sprague Dawley rats = test: Multi-feeding administration of composition concentrated in Homo-SI, coagulation time (Quick time); format: in vivo; settings: daily dose of 0.25 mg during 3 consecutive days, male or female rat
Experimental: Administration of a Composition Concentrated in Homo-SI by Multiple Ingestions (“Multi-Feeding”)
A composition of bromadiolone comprising 96% Homo-SI and 4% Hetero-SI is administered daily by tube-feeding during three days (D0, D+1 and D+2) to groups of 3 male or female laboratory rats (Sprague Dawley rats of 200 g) in an amount of: • 0.05 mg of bromadiolone per kilogram of rat, or • 0.1 mg of bromadiolone per kilogram of rat, or • 0.25 mg of bromadiolone per kilogram of rat, or • 0.5 mg of bromadiolone per kilogram of rat, or • 0.75 mg of bromadiolone per kilogram of rat.
On these rats blood samples are taken and on D+3 the coagulation time (Quick time, expressed in seconds) of the plasma is measured by means of the “Neoplastine CI Determination of Prothrombin Time” kit (Diagnostica Stago, Asnière, France) by measurement on a Thrombotimer option 2 plus apparatus (Behnk Electronik, Norderstedt, Germany).
The results obtained are given in FIG. 5, on which the hatched histograms represent the coagulation time of the female rats and the solid histograms represent the coagulation times of the male rats. By way of indication, the normal value for the coagulation time of untreated rats is of the order of 10 to 20 seconds.

[1] = Hepatic persistence of Homo-SI/Hetero-SI mixtures in the male rat; format: in vivo, male Sprague Dawley rats
Experimental: Hepatic Persistence of the Homo-SI and Hetero-SI Configurational Stereoisomers of Bromadiolone in the Male Rat
The following compositions concentrated in the Homo-SI or Hetero-SI configurational stereoisomers are prepared by one of the chromatography methods described above, in which the molar ratios are as follows: • Homo-SI/Hetero-SI: 80/20; • Homo-SI/Hetero-SI: 4/96.
On D0 16 male laboratory rats (Sprague Dawley rats, Charles River, Saint germain sur l'Arbresle, France) having a body weight of the order of 200 g are tube-fed with a dose of the 80/20 mixture or the 4/96 mixture above in an amount of 3.8 mg of bromadiolone per kilogram of rat. The rats are kept alive by daily subcutaneous injection of a solution of vitamin K. On D+1, D+3, D+5 and D+10, 4 rats are anaesthetised with isoflurane and then sacrificed, and the livers are removed and frozen until analysed.

[2] = Hepatic persistence of Homo-SI/Hetero-SI mixtures in the female rat; format: in vivo, female rats
Experimental: Hepatic Persistence of the Homo-SI and Hetero-SI Configurational Stereoisomers of Bromadiolone in the Female Rat
The following compositions concentrated in the Homo-SI or Hetero-SI configurational stereoisomers are prepared by one of the chromatography methods described above, in which the molar ratios are as follows: • Homo-SI/Hetero-SI: 80/20; • Homo-SI/Hetero-SI: 20/80.
The procedure with the female rats is the same as that with the male rats as described above. The mean hepatic contents of the Homo-SI and Hetero-SI isomers of the female rats are analysed by HPLC and are given in Table 4 below.

[3] = target: T1, Vitamin K Epoxide Reductase Complex 1 (VKORC1) (Rattus norvegicus, UniProt Q6TEK4); test: Inhibition of vitamin K epoxide reductase (VKOR) activity in vitro, rat liver microsomes; format: biochemical; settings: microsomes of livers of rats sensitive to AVK; preparations 96% pure; read-out: inhibition constants (Ki) of VKOR activity
T1 construct: catalysed by microsomes of the livers of rats sensitive to anti-vitamin K (AVK) compounds; from tissue; host or cells: rat liver microsomes
T1 sequence (Q6TEK4 1-161): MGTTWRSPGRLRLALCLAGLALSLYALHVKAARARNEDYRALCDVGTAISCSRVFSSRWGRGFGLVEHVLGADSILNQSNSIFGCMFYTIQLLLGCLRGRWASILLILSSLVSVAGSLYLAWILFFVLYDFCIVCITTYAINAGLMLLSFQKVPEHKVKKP
Experimental: Inhibition of Vitamin K Epoxide Reductase Complex 1 (VKORC1) In Vitro by the Homostereoisomer and by the Heterostereoisomer of Bromadiolone
The inhibitory power of two preparations concentrated respectively in the homostereoisomer (Homo-SI) and heterostereoisomer (Hetero-SI) of bromadiolone was evaluated utilising measurement of the activity of vitamin K epoxide reductase (VKOR) catalysed by microsomes of the livers of rats sensitive to anti-vitamin K (AVK) compounds. The configurational stereoisomers of bromadiolone are partially purified by HPLC chromatography over a gradient of composition (A/B) as described in Table 1 above. The preparation concentrated in Homo-SI is made up of 96% Homo-SI and 4% Hetero-SI. The preparation concentrated in Hetero-SI is made up of 96% Hetero-SI and 4% Homo-SI. […] The inhibitory power on the toxicological target of each of the two isomers is therefore similar.

[4] = Hepatic persistence in the rat after single tube-feeding of Homo-SI or Hetero-SI; format: in vivo, Sprague Dawley rats
Experimental: Hepatic Persistence of the Homostereoisomer (Homo-SI) and the Heterostereoisomer (Hetero-SI) of Bromadiolone in the Rat
On D0 laboratory rats (Sprague Dawley rats, Charles River, Saint germain sur l'Arbresle, France) having a body weight of the order of 200 g are tube-fed with a solution of Homo-SI in a mixture of oil/DMSO or with a solution of Hetero-SI in an identical mixture of oil/DMSO in an amount of 3.0 mg of bromadiolone per kilogram of rat. The rats are kept alive by daily subcutaneous injection of a solution of vitamin K in an amount of 0.1 U per rat. On D+1, D+3, D+7, D+14 and D+21 4 rats are anaesthetised with isoflurane and then sacrificed, and the livers are removed and frozen until analysed. The course with respect to time of the mean hepatic contents of the configurational stereoisomers “Homo-SI” (▪) and “Hetero-SI” (◯) are analysed by HPLC, given in Table 2 below and shown in FIG. 4 (the symbol (▪) represents Homo-SI and the symbol (◯) represents Hetero-SI).

[5] = D + 1, 3.0 mg/kg tube-fed on D0, 3 mg/kg
[6] = D + 3, 3.0 mg/kg tube-fed on D0, 3 mg/kg
[7] = D + 7, 3.0 mg/kg tube-fed on D0, 3 mg/kg
[8] = D + 14, 3.0 mg/kg tube-fed on D0, 3 mg/kg

SMILES | Hepatic content of total bromadiolone ([1]; 3.8 mg/kg, D + 1, 3.8 mg/kg) [µg/g] | Hepatic content of total bromadiolone ([1]; 3.8 mg/kg, D + 3, 3.8 mg/kg) [µg/g] | Hepatic content of total bromadiolone ([1]; 3.8 mg/kg, D + 5, 3.8 mg/kg) [µg/g] | Hepatic content of total bromadiolone ([2]; D + 9) [µg/g] | Ki [3] [nM] | Hepatic content [4, 5] [µg/g] | Hepatic content [4, 6] [µg/g] | Hepatic content [4, 7] [µg/g] | Hepatic content [4, 8] [µg/g] | also measured
O=c1oc2ccccc2c(O)c1C(CC(O)c1ccc(-c2ccc(Br)cc2)cc1)c1ccccc1 (stereo not shown) [96/4] |  |  |  |  |  |  |  |  |  | effect of repeated ingestion (anticoagulant effect, haemorrhage, death) (Sprague Dawley rats): sufficient to obtain an anticoagulant effect, a haemorrhage in the rat (male or female) and its death
O=c1oc2ccccc2c(O)c1C(CC(O)c1ccc(-c2ccc(Br)cc2)cc1)c1ccccc1 (stereo not shown) [Mixture 80/20] | 7.85 ± 0.51 | 3.49 ± 0.29 | 2.15 ± 0.90 | 2.47 |  |  |  |  |  | Hepatic content of total bromadiolone ([1]; 3.8 mg/kg, D + 10, 3.8 mg/kg): 1.33 ± 0.14 µg/g; hepatic persistence (comparison with Hetero-SI or 4/96 mixture) ([1]; listed as 80/20 mixture): less persistent; concentration at 1 day ([1]; male, Sprague Dawley, rat, liver, oral, 3.8 mg/kg, D + 1, read-out: Hepatic content of total bromadiolone): 7850 ng/g; Hepatic content of total bromadiolone ([2]; D + 1): 25.39 µg/g; Hepatic content of total bromadiolone ([2]; D + 3): 12.6 µg/g
O=c1oc2ccccc2c(O)c1C(CC(O)c1ccc(-c2ccc(Br)cc2)cc1)c1ccccc1 (stereo not shown) [Homo-SI, 3-[3-(4′-bromo-[1,1′-biphenyl]-4-yl)-3-hydroxy-1-phenylpropyl]-4-hydroxy-2H-1-benzopyran-2-one] |  |  |  |  | ~30 | 8.27 ± 2.72 | 2.34 ± 0.43 | 1.57 ± 0.21 | 0.99 ± 0.06 | concentration at 21 day ([4]; Sprague Dawley, rat, liver, oral, 3 mg/kg, D + 21, 3.0 mg/kg tube-fed on D0, read-out: Hepatic content): 920 ± 80 ng/g; hepatic persistence compared with Hetero-SI ([4]; rat, equal initial dose): significantly lower; hepatic persistence (comparison with Hetero-SI or 4/96 mixture) [1]: significantly lower; hepatic persistence compared with Hetero-SI [2]: significantly lower
O=c1oc2ccccc2c(O)c1C(CC(O)c1ccc(-c2ccc(Br)cc2)cc1)c1ccccc1 (stereo not shown) [Hetero-SI, reference compound] |  |  |  |  | ~50 | 18.62 ± 2.22 | 14.70 ± 1.06 | 5.20 ± 0.75 | 2.67 ± 1.07 | Hepatic content ([4]; D + 21, 3.0 mg/kg tube-fed on D0, 3 mg/kg): 0.99 ± 0.07 µg/g
O=c1oc2ccccc2c(O)c1C(CC(O)c1ccc(-c2ccc(Br)cc2)cc1)c1ccccc1 (stereo not shown) [Mixture 20/80, reference compound] |  |  |  | 7.18 |  |  |  |  |  | concentration at 1 day ([2]; female, Sprague Dawley, rat, liver, oral, 3.8 mg/kg, D + 1, read-out: Hepatic content of total bromadiolone): 32500 ng/g; concentration at 3 day ([2]; female, Sprague Dawley, rat, liver, oral, 3.8 mg/kg, D + 3, read-out: Hepatic content of total bromadiolone): 24200 ng/g; concentration at 5 day ([2]; female, Sprague Dawley, rat, liver, oral, 3.8 mg/kg, D + 5, read-out: Hepatic content of total bromadiolone): 16400 ng/g
O=c1oc2ccccc2c(O)c1C(CC(O)c1ccc(-c2ccc(Br)cc2)cc1)c1ccccc1 (stereo not shown) [Mixture 4/96, reference compound] | 14.96 ± 2.0 | 10.08 ± 3.3 | 9.99 ± 1.0 |  |  |  |  |  |  | Hepatic content of total bromadiolone ([1]; 3.8 mg/kg, D + 1, listed as 4/96 mixture, 3.8 mg/kg): 14.96 µg/g; concentration at 10 day ([1]; male, Sprague Dawley, rat, liver, oral, 3.8 mg/kg, D + 10, read-out: Hepatic content of total bromadiolone): 2390 ng/g
